In US20250367185A1, “TRANSLESION SYNTHESIS POLYMERASE INHIBITORS AND USES THEREOF” (THE UNIVERSITY OF VERMONT AND STATE AGRICULTURAL COLLEGE, priority 2022, published 2025):

Experiments:
[1] = tested on: SARS-COV-2 variants (alpha, beta, gamma, delta, BA.1, BA.2) and USA-WA1/2020; assay type: cell-based; conditions: 10 μM, 48 hours, A549-ACE2+ cells
[2] = tested on: SARS-COV-2 variants (alpha, beta, gamma, delta, BA.1, BA.2) and USA-WA1/2020; assay type: cell-based; conditions: 10 μM, 48 hours, A549-ACE2+ cells; remark: listed apart in the source

## CC(C)CC(=O)c1c(Nc2ccc(C(=O)O)cc2Cl)[nH]c2c(Cl)ccc([N+](=O)[O-])c2c1=O [Compound 1, 3-chloro-4-((8-chloro-3-(3-methylbutanoyl)-5-nitro-4-oxo-1,4-dihydroquinolin-2-yl)amino)benzoic acid]
[1]
  viral mRNA levels: reduces
[2]
  percentage of viral nucleocapsid-positive cells: reduces
